Peptide text beside a SMILES is read from it. * marks the point of attachment. Dansyl = CN(C)c1cccc2c(S(=O)(=O)*)cccc12
Tested on: receptor labeled by the radioiodinated analogue of 1 (4, [125I]-YLFQPQRF-NH2); neuropeptide FF receptor
Experiment: Competitive radioligand binding against 4 ([125I]Y8F-amide)
Conditions: mixture-based positional scanning; difference from averaged radioligand displacement of whole library (0); about 80 a.u. = 10-fold change in Ki

SMILES	Relative Binding Index (RBI)
CC[C@H](C)[C@H](NC(=O)[C@H](CCC(=O)O)NS(=O)(=O)c1cccc2c(N(C)C)cccc12)C(=O)N[C@@H](CCCNC(=N)N)C(N)=O [Dansyl-EIR-amide] (Dansyl-Glu-Ile-Arg-NH2)	23 a.u.
CC[C@H](C)[C@H](NC(=O)[C@@H](NS(=O)(=O)c1cccc2c(N(C)C)cccc12)[C@@H](C)CC)C(=O)N[C@@H](CCCNC(=N)N)C(N)=O [Dansyl-IIR-amide] (Dansyl-Ile-Ile-Arg-NH2)	−5 a.u.
CN(C)c1cccc2c(S(=O)(=O)NCC(=O)N[C@@H](CC(=O)O)C(=O)N[C@@H](CCCNC(=N)N)C(N)=O)cccc12 [Dansyl-GDR-amide] (Dansyl-Gly-Asp-Arg-NH2)	7 a.u.
CC(C)[C@H](NS(=O)(=O)c1cccc2c(N(C)C)cccc12)C(=O)N1CCC[C@H]1C(=O)N[C@@H](CCCNC(=N)N)C(N)=O [Dansyl-VPR-amide] (Dansyl-Val-Pro-Arg-NH2)	−1 a.u.
CSCC[C@H](NS(=O)(=O)c1cccc2c(N(C)C)cccc12)C(=O)NCC(=O)N[C@@H](CCCNC(=N)N)C(N)=O [Dansyl-MGR-amide] (Dansyl-Met-Gly-Arg-NH2)	−39 a.u.
CSCC[C@H](NS(=O)(=O)c1cccc2c(N(C)C)cccc12)C(=O)N[C@@H](CC(C)C)C(=O)N[C@@H](CCCNC(=N)N)C(N)=O [Dansyl-MLR-amide] (Dansyl-Met-Leu-Arg-NH2)	−52 a.u.
CSCC[C@H](NC(=O)[C@@H](NS(=O)(=O)c1cccc2c(N(C)C)cccc12)C(C)C)C(=O)N[C@@H](CCCNC(=N)N)C(N)=O [Dansyl-VMR-amide] (Dansyl-Val-Met-Arg-NH2)	−4 a.u.
C[C@H](NC(=O)[C@H](Cc1c[nH]cn1)NS(=O)(=O)c1cccc2c(N(C)C)cccc12)C(=O)N[C@@H](CCCNC(=N)N)C(N)=O [Dansyl-HAR-amide] (Dansyl-His-Ala-Arg-NH2)	−32 a.u.
CN(C)c1cccc2c(S(=O)(=O)N[C@@H](Cc3cnc[nH]3)C(=O)N[C@@H](CCCNC(=N)N)C(=O)N[C@@H](CCCNC(=N)N)C(N)=O)cccc12 [Dansyl-HRR-amide] (Dansyl-His-Arg-Arg-NH2)	15 a.u.
CC[C@H](C)[C@H](NS(=O)(=O)c1cccc2c(N(C)C)cccc12)C(=O)N[C@@H](CCC(N)=O)C(=O)N[C@@H](CCCNC(=N)N)C(N)=O [Dansyl-IQR-amide] (Dansyl-Ile-Gln-Arg-NH2)	3 a.u.
CC[C@H](C)[C@H](NC(=O)[C@H](CCC(N)=O)NS(=O)(=O)c1cccc2c(N(C)C)cccc12)C(=O)N[C@@H](CCCNC(=N)N)C(N)=O [Dansyl-QIR-amide] (Dansyl-Gln-Ile-Arg-NH2)	28 a.u.
CSCC[C@H](NC(=O)[C@H](C)NS(=O)(=O)c1cccc2c(N(C)C)cccc12)C(=O)N[C@@H](CCCNC(=N)N)C(N)=O [Dansyl-AMR-amide] (Dansyl-Ala-Met-Arg-NH2)	12 a.u.
C[C@H](NS(=O)(=O)c1cccc2c(N(C)C)cccc12)C(=O)N[C@@H](CCC(N)=O)C(=O)N[C@@H](CCCNC(=N)N)C(N)=O [Dansyl-AQR-amide] (Dansyl-Ala-Gln-Arg-NH2)	26 a.u.
CSCC[C@H](NS(=O)(=O)c1cccc2c(N(C)C)cccc12)C(=O)N[C@@H](Cc1c[nH]cn1)C(=O)N[C@@H](CCCNC(=N)N)C(N)=O [Dansyl-MHR-amide] (Dansyl-Met-His-Arg-NH2)	−50 a.u.
CC(C)C[C@H](NS(=O)(=O)c1cccc2c(N(C)C)cccc12)C(=O)N[C@@H](CC(=O)O)C(=O)N[C@@H](CCCNC(=N)N)C(N)=O [Dansyl-LDR-amide] (Dansyl-Leu-Asp-Arg-NH2)	−50 a.u.
C[C@@H](O)[C@H](NS(=O)(=O)c1cccc2c(N(C)C)cccc12)C(=O)N[C@@H](CCCNC(=N)N)C(=O)N[C@@H](CCCNC(=N)N)C(N)=O [Dansyl-TRR-amide] (Dansyl-Thr-Arg-Arg-NH2)	−10 a.u.
CSCC[C@H](NS(=O)(=O)c1cccc2c(N(C)C)cccc12)C(=O)N[C@@H](CCC(N)=O)C(=O)N[C@@H](CCCNC(=N)N)C(N)=O [Dansyl-MQR-amide] (Dansyl-Met-Gln-Arg-NH2)	−30 a.u.
CN(C)c1cccc2c(S(=O)(=O)N[C@@H](CCC(N)=O)C(=O)N[C@@H](Cc3c[nH]cn3)C(=O)N[C@@H](CCCNC(=N)N)C(N)=O)cccc12 [Dansyl-QHR-amide] (Dansyl-Gln-His-Arg-NH2)	16 a.u.
C[C@H](NS(=O)(=O)c1cccc2c(N(C)C)cccc12)C(=O)N[C@@H](Cc1c[nH]c2ccccc12)C(=O)N[C@@H](CCCNC(=N)N)C(N)=O [Dansyl-AWR-amide] (Dansyl-Ala-Trp-Arg-NH2)	21 a.u.
CN(C)c1cccc2c(S(=O)(=O)N[C@@H](CCC(=O)O)C(=O)NCC(=O)N[C@@H](CCCNC(=N)N)C(N)=O)cccc12 [Dansyl-EGR-amide] (Dansyl-Glu-Gly-Arg-NH2)	22 a.u.

SMILES	Relative Binding Index (RBI)
C[C@H](NS(=O)(=O)c1cccc2c(N(C)C)cccc12)C(=O)N[C@@H](CCC(=O)O)C(=O)N[C@@H](CCCNC(=N)N)C(N)=O [Dansyl-AER-amide] (Dansyl-Ala-Glu-Arg-NH2)	12 a.u.
CN(C)c1cccc2c(S(=O)(=O)N[C@@H](Cc3c[nH]cn3)C(=O)N[C@@H](CCC(=O)O)C(=O)N[C@@H](CCCNC(=N)N)C(N)=O)cccc12 [Dansyl-HER-amide] (Dansyl-His-Glu-Arg-NH2)	17 a.u.
CN(C)c1cccc2c(S(=O)(=O)N[C@@H](CC(=O)O)C(=O)N[C@@H](Cc3c[nH]c4ccccc34)C(=O)N[C@@H](CCCNC(=N)N)C(N)=O)cccc12 [Dansyl-DWR-amide] (Dansyl-Asp-Trp-Arg-NH2)	3 a.u.
CN(C)c1cccc2c(S(=O)(=O)N[C@@H](CO)C(=O)N[C@@H](CCCCN)C(=O)N[C@@H](CCCNC(=N)N)C(N)=O)cccc12 [Dansyl-SKR-amide] (Dansyl-Ser-Lys-Arg-NH2)	14 a.u.
CN(C)c1cccc2c(S(=O)(=O)N[C@@H](CCC(=O)O)C(=O)N[C@@H](CCCNC(=N)N)C(=O)N[C@@H](CCCNC(=N)N)C(N)=O)cccc12 [Dansyl-ERR-amide] (Dansyl-Glu-Arg-Arg-NH2)	15 a.u.
CN(C)c1cccc2c(S(=O)(=O)N[C@@H](Cc3cnc[nH]3)C(=O)N[C@@H](Cc3c[nH]c4ccccc34)C(=O)N[C@@H](CCCNC(=N)N)C(N)=O)cccc12 [Dansyl-HWR-amide] (Dansyl-His-Trp-Arg-NH2)	26 a.u.
CC(C)[C@H](NS(=O)(=O)c1cccc2c(N(C)C)cccc12)C(=O)N[C@@H](CC(=O)O)C(=O)N[C@@H](CCCNC(=N)N)C(N)=O [Dansyl-VDR-amide] (Dansyl-Val-Asp-Arg-NH2)	−22 a.u.
C[C@H](NC(=O)CNS(=O)(=O)c1cccc2c(N(C)C)cccc12)C(=O)N[C@@H](CCCNC(=N)N)C(N)=O [Dansyl-GAR-amide] (Dansyl-Gly-Ala-Arg-NH2)	−24 a.u.
C[C@@H](O)[C@H](NS(=O)(=O)c1cccc2c(N(C)C)cccc12)C(=O)N[C@@H](Cc1ccc(O)cc1)C(=O)N[C@@H](CCCNC(=N)N)C(N)=O [Dansyl-TYR-amide] (Dansyl-Thr-Tyr-Arg-NH2)	−10 a.u.
CN(C)c1cccc2c(S(=O)(=O)N3CCC[C@H]3C(=O)N[C@@H](Cc3ccccc3)C(=O)N[C@@H](CCCNC(=N)N)C(N)=O)cccc12 [Dansyl-PFR-amide] (Dansyl-Pro-Phe-Arg-NH2)	−49 a.u.
CN(C)c1cccc2c(S(=O)(=O)N[C@@H](CCC(=O)O)C(=O)N[C@@H](CCC(=O)O)C(=O)N[C@@H](CCCNC(=N)N)C(N)=O)cccc12 [Dansyl-EER-amide] (Dansyl-Glu-Glu-Arg-NH2)	17 a.u.
CSCC[C@H](NS(=O)(=O)c1cccc2c(N(C)C)cccc12)C(=O)N[C@@H](CC(=O)O)C(=O)N[C@@H](CCCNC(=N)N)C(N)=O [Dansyl-MDR-amide] (Dansyl-Met-Asp-Arg-NH2)	−62 a.u.
CC(C)C[C@H](NC(=O)[C@H](CCCNC(=N)N)NS(=O)(=O)c1cccc2c(N(C)C)cccc12)C(=O)N[C@@H](CCCNC(=N)N)C(N)=O [Dansyl-RLR-amide]	−2 a.u.
CC(C)C[C@H](NS(=O)(=O)c1cccc2c(N(C)C)cccc12)C(=O)N[C@@H](CC(N)=O)C(=O)N[C@@H](CCCNC(=N)N)C(N)=O [Dansyl-LNR-amide] (Dansyl-Leu-Asn-Arg-NH2)	−31 a.u.
CSCC[C@H](NS(=O)(=O)c1cccc2c(N(C)C)cccc12)C(=O)N[C@@H](CCCCN)C(=O)N[C@@H](CCCNC(=N)N)C(N)=O [Dansyl-MKR-amide] (Dansyl-Met-Lys-Arg-NH2)	−46 a.u.
CN(C)c1cccc2c(S(=O)(=O)N[C@@H](CC(N)=O)C(=O)N[C@@H](Cc3ccccc3)C(=O)N[C@@H](CCCNC(=N)N)C(N)=O)cccc12 [Dansyl-NFR-amide] (Dansyl-Asn-Phe-Arg-NH2)	11 a.u.
CN(C)c1cccc2c(S(=O)(=O)N3CCC[C@H]3C(=O)N3CCC[C@H]3C(=O)N[C@@H](CCCNC(=N)N)C(N)=O)cccc12 [Dansyl-PPR-amide] (Dansyl-Pro-Pro-Arg-NH2)	−45 a.u.
CC(C)C[C@H](NS(=O)(=O)c1cccc2c(N(C)C)cccc12)C(=O)N[C@H](C(=O)N[C@@H](CCCNC(=N)N)C(N)=O)C(C)C [Dansyl-LVR-amide] (Dansyl-Leu-Val-Arg-NH2)	−37 a.u.
CC(O)C(NS(=O)(=O)c1cccc2c(N(C)C)cccc12)C(=O)NC(Cc1ccccc1)C(=O)NC(CCCNC(=N)N)C(N)=O (stereo not drawn) [Dansyl-TFR-amide] (Dansyl-Thr-Phe-Arg-NH2; configuration not given here)	−10 a.u.
CC(C)[C@H](NS(=O)(=O)c1cccc2c(N(C)C)cccc12)C(=O)N[C@H](C(=O)N[C@@H](CCCNC(=N)N)C(N)=O)[C@@H](C)O [Dansyl-VTR-amide] (Dansyl-Val-Thr-Arg-NH2)	1 a.u.

— patent publication US6960574B2, “Antagonists of RF-amide neuropeptides” (University of Florida, priority 2002, dated 2005)
